Values of other authors, collected in patent US10449179B2, “Stable veterinary anthelmintic formulations” (DONAGHYS LIMITED, priority 2014, dated 2019).

Conditions: LD50 literature averages for three animal species, human equivalent, safety factor 10

In the case of `C[S+](C)[O-]` [DMSO, dimethylsulfoxide], the “safety relative to N-methylpyrrolidone (acute oral LD50)” value is listed as “approximately 5 times”.
